According to US20250152584A1, “NLRP3 INFLAMMASOME INHIBITOR AND USES THEREOF” (TransThera Sciences (Nanjing), Inc., priority 2022, published 2025):
Like-named read-outs stand apart in the source and are kept apart here.

Legend:
[1] = target: T1, hERG potassium ion channel (Homo sapiens, UniProt Q12809); experiment: Inhibition of hERG potassium ion channels, manual patch-clamp in HEK-293 cells; format: cell-based; conditions: HEK-293 cells stably expressing hERG, whole-cell manual patch-clamp, room temperature
T1 construct: expressed in transfected cells
Protocol: Experimental Example 5: Test for Inhibition of hERG Potassium Ion Channels by Compound
Experimental Objective: To study the inhibitory effect of the compound on hERG potassium ion channels by a manual patch-clamp technique. […]
• 2.1 Blank control: DMSO stock. • 2.2 Positive control: 10 mM stock formulated from a appropriate amount of Cisapride and dimethyl sulfoxide (DMSO). The stock was aliquoted and stored at −20° C. • 2.3 Compound: An appropriate amount of compound was weighed; the volume of DMSO required was calculated according to the formula: DMSO volume=actual amount×purity (content)/(molecular weight×theoretical concentration), and the corresponding volume of DMSO was pipetted; then, the weighed compound was dissolved with the pipetted DMSO, and the mass of DMSO was measured at the same time; and finally, the actual stock concentration was calculated according to the final amount of DMSO used. […]

[2] = Pharmacokinetic study in beagles; format: in vivo; conditions: beagle, dog, plasma, male beagles
Protocol: Experimental Example 4: Pharmacokinetic Study of Compounds in Beagles
Compound 174 was prepared into a solution with a mixed solvent formulated from 5% dimethyl sulfoxide, 20% (30% solutol) and 75% normal saline; the solution of this compound was administered to male beagles by gavage at a dose of 1.0 mg/kg; and the time points for blood collection were: 15 min, 30 min, 1 b, 2 h, 4 h, 6 b, 8 h, 10 h and 24 h. The solution of the compound was administered to male beagles by intravenous bolus at a dose of 1.0 mg/kg, and the time points for blood collection were as follows: 5 min, 15 min, 30 min, 1 h, 2 h, 4 h, 6 h, 8 h, 10 h, and 24 h.
Compound 177 and Compound 195 were prepared into solutions with a mixed solvent formulated from 5% dimethyl sulfoxide, 20% (30% solutol) and 75% normal saline, respectively; the solutions of these compounds were administered to male beagles by gavage at a dose of 1.0 mg/kg; and the time points for blood collection were: 15 min, 30 min, 1 h, 2 h, 4 h, 6 h, 8 h, 10 h and 24 h. The solution of the compound was administered to male beagles by intravenous bolus at a dose of 1.0 mg/kg, and the time points for blood collection were as follows: 5 min, 15 min, 30 min, 1 h, 2 h, 4 h, 6 h, 8 h, 10 h, and 24 h.
Approximately 400 μL of blood was collected through the medial cephalic vein of the forelimb and placed in an anticoagulant tube containing EDTA-K2. Blood samples were centrifuged at 12,000 rpm for 10 min at 4° C. to obtain plasma samples, and plasma was prepared within 30 min after blood collection. The plasma was stored in a −80° C. freezer before testing.

T1 sequence (Q12809 whole entry): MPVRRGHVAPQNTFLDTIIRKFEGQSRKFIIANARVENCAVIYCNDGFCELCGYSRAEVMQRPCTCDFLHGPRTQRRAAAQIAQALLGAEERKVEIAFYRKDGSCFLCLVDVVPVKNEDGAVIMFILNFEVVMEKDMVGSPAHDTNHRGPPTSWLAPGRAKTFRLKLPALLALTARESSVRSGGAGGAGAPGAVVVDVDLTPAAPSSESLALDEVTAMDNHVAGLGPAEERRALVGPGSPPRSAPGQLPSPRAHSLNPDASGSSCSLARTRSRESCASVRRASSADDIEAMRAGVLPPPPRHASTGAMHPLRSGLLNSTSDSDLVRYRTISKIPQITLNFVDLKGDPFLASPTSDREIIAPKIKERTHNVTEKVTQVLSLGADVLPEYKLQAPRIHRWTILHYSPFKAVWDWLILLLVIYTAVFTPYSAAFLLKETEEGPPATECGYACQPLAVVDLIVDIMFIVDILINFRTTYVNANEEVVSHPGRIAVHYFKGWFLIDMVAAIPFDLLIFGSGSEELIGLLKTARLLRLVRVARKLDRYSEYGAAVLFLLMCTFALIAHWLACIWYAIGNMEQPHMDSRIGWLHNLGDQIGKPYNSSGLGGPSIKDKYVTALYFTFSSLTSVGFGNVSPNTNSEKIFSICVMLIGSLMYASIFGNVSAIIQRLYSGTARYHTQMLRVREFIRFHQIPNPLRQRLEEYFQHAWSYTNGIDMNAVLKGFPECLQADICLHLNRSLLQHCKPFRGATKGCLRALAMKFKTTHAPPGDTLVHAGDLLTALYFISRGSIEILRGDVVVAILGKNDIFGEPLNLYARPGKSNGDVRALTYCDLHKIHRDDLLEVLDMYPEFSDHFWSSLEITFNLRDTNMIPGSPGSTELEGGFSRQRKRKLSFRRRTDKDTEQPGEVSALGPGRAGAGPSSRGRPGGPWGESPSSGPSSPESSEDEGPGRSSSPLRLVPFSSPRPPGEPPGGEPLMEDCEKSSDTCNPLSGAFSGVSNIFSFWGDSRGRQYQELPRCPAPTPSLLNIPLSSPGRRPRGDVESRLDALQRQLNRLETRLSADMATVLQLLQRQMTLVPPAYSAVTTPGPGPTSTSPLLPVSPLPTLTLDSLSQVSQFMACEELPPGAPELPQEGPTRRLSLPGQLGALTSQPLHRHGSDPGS

| AUC(0-t) ([2]; po, gavage 1.0 mg/kg, read-out: AUClast po (area under the drug-time curve for 0-24 h)) | Cmax ([2]; po, gavage 1.0 mg/kg, read-out: Cmax po (peak concentration)) | Tmax ([2]; po, gavage 1.0 mg/kg, read-out: Tmax po (peak time of plasma concentration)) | half-life ([2]; po, gavage 1.0 mg/kg, read-out: tz1/2 po (terminal elimination half-life) (converted)) | AUC(0-t) ([2]; intravenous bolus 1.0 mg/kg, read-out: AUClast iv (area under the drug-time curve for 0-24 h)) | clearance ([2]; intravenous bolus 1.0 mg/kg, read-out: Cl—obs iv (clearance rate) (converted)) | Vd ([2]; intravenous bolus 1.0 mg/kg, read-out: Vss iv (volume of distribution)) | half-life ([2]; intravenous bolus 1.0 mg/kg, read-out: tz1/2 iv (terminal elimination half-life) (converted)) | bioavailability ([2]; iv 1.0 mg/kg / po 1.0 mg/kg, read-out: F % (absolute bioavailability)) | Compound | IC50 [1] |
| --- | --- | --- | --- | --- | --- | --- | --- | --- | --- | --- |
|  |  |  |  |  |  |  |  |  | C#Cc1ccc(-c2nnc(N[C@@H]3CCCN(C)C3)cc2C)c(O)c1 [Compound 54, (R)-5-ethynyl-2-(4-methyl-6-((1-methylpiperidin-3-yl)amino)pyridazin-3-yl)phenol] | > 10 µM |
| 1660 ng·h/mL | 105 ng/mL | 4 h | 14.7 h | 1980 ng·h/mL | 5.53 mL/min/kg | 7.39 L/kg | 15.8 h | 83.8% | CC#Cc1ccc(-c2nnc(N[C@@H]3CCCN(C)C3)cc2C)c(O)c1 [Compound 174, (R)-2-(4-methyl-6-((1-methylpiperidin-3-yl)amino)pyridazin-3-yl)-5-(prop-1-yn-1-yl)phenol] |  |
